The subject of this test is fulvestrant-resistant MCF7:5C-FR cells. As to the kind of experiment: Fulvestrant-resistant breast cancer cell viability (cell proliferation) assay. It counts as cell-based. The conditions noted are these: growth inhibition in fulvestrant-resistant MCF-7:CFR cells, 120 hrs. Here is the method:
For the cell proliferation assay, the fulvestrant-resistant MCF7:5C-FR cells were seeded at about 2000 to about 2500/well in 96-well plates. The next day, compounds were add to the cells at desired serial concentrations form 3 nM to 10 uM. A final 0.1% (v/v) DMSO was used as vehicle control and 1 uM JQ1 was used as positive. The cell were grown in the normal culture condition for 120 hrs. Then the Hoechst 33342 dye were add to each well at a final concentration of 5 μg/ml, and put back to the incubator at 37 C for 90 min. The plates were scanned immediately after the incubation with Celigo (Nexcelcom Biocesnse) for the fluorescence of the nuclear using DAPI channel, and the cell number was counted thought the analysis function of the Celigo software. The normalized cell number to the vehicle control was used to represent the cell proliferation. […] N.D.=Not determined.

Here are results for 33 compounds from US11840533B2, “Pyridinone-based epigenetic modifiers and uses thereof” (THE BOARD OF TRUSTEES OF THE UNIVERSITY OF ILLINOIS, priority 2017, dated 2023).

As a reminder, the IC50 is the concentration at which inhibition is half-maximal. A high value points to weaker potency in that assay. For the setting “120 h”, `Cn1ccc2ccnc(O)c21` [Compound 1, 1-methyl-1H-pyrrolo[2,3-c]pyridin-7-ol] displayed an IC50 greater than 5000 nM.
Under “120 h”, `Cn1cc(C(=O)c2cccc(-c3ccc(F)cc3)c2)c2ccnc(O)c21` [Compound 2, (4′-fluoro-[1,1′-biphenyl]-3-yl)(7-hydroxy-1-methyl-1H-pyrrolo[2,3-c]pyridin-3-yl)methanone] yielded an IC50 of 157 nM. This counts as sub-micromolar.
Same read-out and setting: the value for `O=C(c1cccc(-c2ccc(F)cc2)c1)c1c[nH]c2c(O)nccc12` [Compound 3, (4′-fluoro-[1,1′-biphenyl]-3-yl)(7-hydroxy-1H-pyrrolo[2,3-c]pyridin-3-yl)methanone] was greater than 1000 nM; that for `Cn1cc(C(=O)c2ccc(-c3ccc(F)cc3)cc2)c2ccnc(O)c21` [Compound 4, (4′-fluoro-[1,1′-biphenyl]-4-yl)(7-hydroxy-1-methyl-1H-pyrrolo[2,3-c]pyridin-3-yl)methanone] was greater than 5000 nM; that for `Cn1cc(C(=O)c2ccccc2)c2ccnc(O)c21` [Compound 5, (7-hydroxy-1-methyl-1H-pyrrolo[2,3-c]pyridin-3-yl)(phenyl)methanone] was greater than 5000 nM.
Same read-out and setting: the value for `Cn1cc(C(=O)c2ccccc2Cl)c2ccnc(O)c21` [Compound 6, (2-chlorophenyl)(7-hydroxy-1-methyl-1H-pyrrolo[2,3-c]pyridin-3-yl)methanone] was greater than 5000 nM.
Same read-out and setting: in the case of `O=C(c1cccc(-c2ccc(F)cc2)c1)c1cn(CCCl)c2c(O)nccc12` [Compound 7, (1-(2-chloroethyl)-7-hydroxy-1H-pyrrolo[2,3-c]pyridin-3-yl)(4′-fluoro-[1,1′-biphenyl]-3-yl)methanone] it was 1500 nM.
Consider `O=C(c1cccc(-c2ccc(F)cc2)c1)c1cn(CCCCl)c2c(O)nccc12` [Compound 8, (1-(3-chloropropyl)-7-hydroxy-1H-pyrrolo[2,3-c]pyridin-3-yl)(4′-fluoro-[1,1′-biphenyl]-3-yl)methanone], for which the concentration for half-maximal inhibition (IC50) is greater than 5000 nM.
Turning to `Cn1cc(C(OCc2ccc(F)cc2)c2cccc(-c3ccc(F)cc3)c2)c2ccnc(O)c21` (stereo not drawn) [Compound 9, 3-((4′-fluoro-[1,1′-biphenyl]-3-yl)((4-fluorobenzyl)oxy)methyl)-1-methyl-1H-pyrrolo[2,3-c]pyridin-7-ol], the half-maximal inhibitory concentration (IC50) (120 h) is greater than 5000 nM.
On the same count and under the same terms, the value for `Cn1cc(C(Oc2ccc(F)cc2)c2cccc(-c3ccc(F)cc3)c2)c2ccnc(O)c21` (stereo not drawn) [Compound 10, 3-((4′-fluoro-[1,1′-biphenyl]-3-yl)(4-fluorophenoxy)methyl)-1-methyl-1H-pyrrolo[2,3-c]pyridin-7-ol] was 300 nM; that for `Cn1cc(C(OCC2CCC2)c2cccc(-c3ccc(F)cc3)c2)c2ccnc(O)c21` (stereo not drawn) [Compound 11, 3-((cyclobutylmethoxy)(4′-fluoro-[1,1′-biphenyl]-3-yl)methyl)-1-methyl-1H-pyrrolo[2,3-c]pyridin-7-ol] was greater than 5000 nM; that for `CNS(=O)(=O)CCc1ccc(O)cc1C(=O)c1cn(C)c2c(O)nccc12` [Compound 12, 2-(4-hydroxy-2-(7-hydroxy-1-methyl-1H-pyrrolo[2,3-c]pyridine-3-carbonyl)phenyl)-N-methylethane-1-sulfonamide] was greater than 1000 nM.
Still for that read-out and setting: in the case of `CNS(=O)(=O)CCc1ccc(OCc2ccc(F)cc2)cc1C(=O)c1cn(C)c2c(O)nccc12` [Compound 13, 2-(4-((4-fluorobenzyl)oxy)-2-(7-hydroxy-1-methyl-1H-pyrrolo[2,3-c]pyridine-3-carbonyl)phenyl)-N-methylethane-1-sulfonamide] it was greater than 1000 nM; in that of `CNS(=O)(=O)CCc1ccc(OCC2CCC2)cc1C(=O)c1cn(C)c2c(O)nccc12` [Compound 14, 2-(4-(cyclobutylmethoxy)-2-(7-hydroxy-1-methyl-1H-pyrrolo[2,3-c]pyridine-3-carbonyl)phenyl)-N-methylethane-1-sulfonamide], greater than 1000 nM.
On the same count and under the same terms, the value for `CNS(=O)(=O)CCc1ccc(OC)cc1C(=O)c1cn(C)c2c(O)nccc12` [Compound 15, 2-(2-(7-hydroxy-1-methyl-1H-pyrrolo[2,3-c]pyridine-3-carbonyl)-4-methoxyphenyl)-N-methylethane-1-sulfonamide] was greater than 1000 nM; that for `Cn1cc(-c2cn(CC(N)=O)c3ccc(-c4ccc(F)cc4)cc23)c2ccnc(O)c21` [Compound 16, 2-(5-(4-fluorophenyl)-3-(7-hydroxy-1-methyl-1H-pyrrolo[2,3-c]pyridin-3-yl)-1H-indol-1-yl)acetamide] was greater than 1000 nM.
Regarding `Cn1cc(-c2c[nH]c3ccc(-c4ccc(F)cc4)cc23)c2ccnc(O)c21` [Compound 17, 3-(5-(4-fluorophenyl)-1H-indol-3-yl)-1-methyl-1H-pyrrolo[2,3-c]pyridin-7-ol], under “120 h”, the IC50 was greater than 1000 nM.
In turn, `Cn1cc(-c2cn(CC(N)=O)c3ccc(Br)cc23)c2ccnc(O)c21` [Compound 18, 2-(5-bromo-3-(7-hydroxy-1-methyl-1H-pyrrolo[2,3-c]pyridin-3-yl)-1H-indol-1-yl)acetamide] had a 50% inhibitory concentration (IC50) (120 h) greater than 1000 nM.
For the setting “120 h”, `Cn1cc(-c2c[nH]c3ccc(Br)cc23)c2ccnc(O)c21` [Compound 19, 3-(5-bromo-1H-indol-3-yl)-1-methyl-1H-pyrrolo[2,3-c]pyridin-7-ol] showed an IC50 greater than 1000 nM.
With `Cn1cc(-c2cc(NS(C)(=O)=O)cc3ccn(Cc4ccc(F)cc4)c23)c2ccnc(O)c21` [Compound 20, N-(1-(4-fluorobenzyl)-7-(7-hydroxy-1-methyl-1H-pyrrolo[2,3-c]pyridin-3-yl)-1H-indol-5-yl)methanesulfonamide], inhibition (120 h) was half-maximal at 1990 nM (IC50). In other words, the single-digit micromolar range.
The same measure, in the same setting: the value for `Cc1cc(F)ccc1Cn1ccc2cc(NS(C)(=O)=O)cc(-c3cn(C)c4c(O)nccc34)c21` [Compound 21, N-(1-(4-fluoro-2-methylbenzyl)-7-(7-hydroxy-1-methyl-1H-pyrrolo[2,3-c]pyridin-3-yl)-1H-indol-5-yl)methanesulfonamide] was 3500 nM; that for `Cc1cc(F)cc(C)c1Cn1ccc2cc(NS(C)(=O)=O)cc(-c3cn(C)c4c(O)nccc34)c21` [Compound 22, N-(1-(4-fluoro-2,6-dimethylbenzyl)-7-(7-hydroxy-1-methyl-1H-pyrrolo[2,3-c]pyridin-3-yl)-1H-indol-5-yl)methanesulfonamide] was 526 nM; that for `CCS(=O)(=O)Nc1cc(-c2cn(C)c3c(O)nccc23)cc2c1ccn2Cc1ccc(F)cc1` [Compound 24, N-(1-(4-fluorobenzyl)-6-(7-hydroxy-1-methyl-1H-pyrrolo[2,3-c]pyridin-3-yl)-1H-indol-4-yl)ethanesulfonamide] was less than 200 nM.
Regarding `CCS(=O)(=O)Nc1cc(-c2cn(C)c3c(O)nccc23)cc2c1ccn2Cc1ccc(F)cc1C` [Compound 25, N-(1-(4-fluoro-2-methylbenzyl)-6-(7-hydroxy-1-methyl-1H-pyrrolo[2,3-c]pyridin-3-yl)-1H-indol-4-yl)ethanesulfonamide], for the setting “120 h”, the IC50 was less than 200 nM.
On the same count and under the same terms, the value for `CCS(=O)(=O)Nc1cc(-c2cn(C)c3c(O)nccc23)cc2c1ccn2Cc1ccc(F)cc1Cl` [Compound 26, N-(1-(2-chloro-4-fluorobenzyl)-6-(7-hydroxy-1-methyl-1H-pyrrolo[2,3-c]pyridin-3-yl)-1H-indol-4-yl)ethanesulfonamide] was less than 200 nM; that for `CCS(=O)(=O)Nc1cc(-c2cn(C)c3c(O)nccc23)cc2c1ccn2Cc1c(C)cc(F)cc1C` [Compound 27, N-(1-(4-fluoro-2,6-dimethylbenzyl)-6-(7-hydroxy-1-methyl-1H-pyrrolo[2,3-c]pyridin-3-yl)-1H-indol-4-yl)ethanesulfonamide] was less than 1000 nM; that for `CCS(=O)(=O)Nc1cc(-c2cn(C)c3c(O)nccc23)cc2c1ccn2Cc1c(C)cccc1C` [Compound 28, N-(1-(2,6-dimethylbenzyl)-6-(7-hydroxy-1-methyl-1H-pyrrolo[2,3-c]pyridin-3-yl)-1H-indol-4-yl)ethanesulfonamide] was less than 1000 nM.
In turn, `CCS(=O)(=O)Nc1cc(-c2cn(C)c3c(O)nccc23)cc2c1ccn2Cc1ccc(F)cc1F` [Compound 29, N-(1-(2,4-difluorobenzyl)-6-(7-hydroxy-1-methyl-1H-pyrrolo[2,3-c]pyridin-3-yl)-1H-indol-4-yl)ethanesulfonamide] registered an IC50 (120 h) of less than 500 nM.
Still for that read-out and setting: in the case of `CCS(=O)(=O)Nc1cc(-c2cn(C)c3c(O)nccc23)cc2c1cnn2Cc1ccc(F)cc1C` [Compound 32, N-(1-(4-fluoro-2-methylbenzyl)-6-(7-hydroxy-1-methyl-1H-pyrrolo[2,3-c]pyridin-3-yl)-1H-indazol-4-yl)ethanesulfonamide] it was less than 200 nM; in that of `CCS(=O)(=O)Nc1cc(-c2cn(C)c3c(O)nccc23)cc2c1cnn2Cc1c(C)cc(F)cc1C` [Compound 33, N-(1-(4-fluoro-2,6-dimethylbenzyl)-6-(7-hydroxy-1-methyl-1H-pyrrolo[2,3-c]pyridin-3-yl)-1H-indazol-4-yl)ethanesulfonamide], less than 1000 nM; in that of `CCS(=O)(=O)Nc1cc(-c2cn(C)c3c(O)nccc23)cc2c1cnn2Cc1ccc(F)cc1F` [Compound 34, N-(1-(2,4-difluorobenzyl)-6-(7-hydroxy-1-methyl-1H-pyrrolo[2,3-c]pyridin-3-yl)-1H-indazol-4-yl)ethanesulfonamide], less than 500 nM.
The same measure, in the same setting: in the case of `CCS(=O)(=O)Nc1cc(-c2cn(C)c3c(O)nccc23)cc2c1cnn2Cc1ccc(F)cc1Cl` [Compound 35, N-(1-(2-chloro-4-fluorobenzyl)-6-(7-hydroxy-1-methyl-1H-pyrrolo[2,3-c]pyridin-3-yl)-1H-indazol-4-yl)ethanesulfonamide] it was less than 500 nM.
Still for that read-out and setting: the value for `CCS(=O)(=O)Nc1cc(-c2cn(C)c3c(O)nccc23)cc2c1cnn2Cc1cccc(Cl)c1Cl` [Compound 36, N-(1-(2,3-dichlorobenzyl)-6-(7-hydroxy-1-methyl-1H-pyrrolo[2,3-c]pyridin-3-yl)-1H-indazol-4-yl)ethanesulfonamide] was less than 1000 nM.
